Several values for one entry are separate records, joined by “and”; a condition that tells them apart may be missing. Equal entries are not always repeated. Entries after “also recorded” stand apart in the source; their conditions may differ. Structures can show the parent of a compound that is named as a salt.
Key:
Btk [1] = molecular target: T1, Btk (Homo sapiens, UniProt Q06187); assay: Kinase enzymology assay (HTRF KinEase); assay type: biochemical; parameters: purchased Carna Biosciences; settings: enzymatic assay; values marked * are a single run of duplicates, all others are means of two individual measurements
Description: Kinases were purchased from Carna Biosciences. Kinase enzymology assays were performed according to the protocols specified for the HTRF® KinEase™ assays sold by Cisbio Bioassays.
Target sequence in this assay (Q06187 whole entry): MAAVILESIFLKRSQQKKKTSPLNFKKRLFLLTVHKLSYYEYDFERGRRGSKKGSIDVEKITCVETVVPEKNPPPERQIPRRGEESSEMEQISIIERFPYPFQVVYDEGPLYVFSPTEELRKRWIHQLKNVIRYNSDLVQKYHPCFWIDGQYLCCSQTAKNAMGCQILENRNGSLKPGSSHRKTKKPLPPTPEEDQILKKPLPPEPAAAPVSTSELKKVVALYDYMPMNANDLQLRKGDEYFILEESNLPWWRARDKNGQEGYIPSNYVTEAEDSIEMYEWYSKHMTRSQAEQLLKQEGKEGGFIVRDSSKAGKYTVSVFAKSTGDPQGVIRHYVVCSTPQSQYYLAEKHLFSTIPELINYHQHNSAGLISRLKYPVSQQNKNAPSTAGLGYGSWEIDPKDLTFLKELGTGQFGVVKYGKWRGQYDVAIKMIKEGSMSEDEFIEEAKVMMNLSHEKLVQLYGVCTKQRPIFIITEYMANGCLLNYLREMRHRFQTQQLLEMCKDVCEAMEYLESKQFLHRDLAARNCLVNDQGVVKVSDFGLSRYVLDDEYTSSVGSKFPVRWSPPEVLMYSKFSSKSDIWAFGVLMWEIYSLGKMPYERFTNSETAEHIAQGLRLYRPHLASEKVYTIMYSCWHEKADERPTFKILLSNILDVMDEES

Btk [2] = molecular target: T1, Btk; assay: Competition assay: blocking of probe 14 labeling of Btk in cells; assay type: cell-based; settings: inhibitor 1 μM for 1 hour, then 0.5 μM probe 14 for 2 hours, OCI-Ly7 cells
Description: Competition assay. LY7 cells were preincubated with the compounds (1 μM) for 1 h before labeling with probe 14 under the proper time and concentration conditions. Then, the cells were lysed and analyzed as described above. Supplementary figure S1: competition experiment in OCI-Ly7 cells (a) and Jurkat cells (b). 1.5×10^6 cells were pre-incubated with compounds for 1h at 1μM before labeling with probe 14 for 2h at 0.5μM. Then, lysed, quantified and analyzed by SDS/PAGE and fluorescent gel scanning (fluorescence, CY2).
Target sequence in this assay (Q06187 whole entry): as above

Btk [3] = molecular target: T1, Btk; assay: Kinetic study of Btk inhibitors (kinact/Ki, HTRF KinEase); assay type: biochemical; parameters: purchased Carna Biosciences; settings: 0.5 nM Btk, room temperature, preincubation 0-20 min
Description: The kinase assays were performed at room temperature. The compounds with serial dilution in DMSO were added into reaction buffer with 0.5 nM Btk, incubating with different periods of time (0 min, 4 min, 8 min, 12 min, 16 min, and 20 min). Enzyme reaction was started by adding ATP and substrate to the reaction mixture. The enzyme activity was measured with HTRF® KinEase™ assays. The data analysis was guided by the book, Enzyme Kinetics by Hans Bisswanger[16].
Target sequence in this assay (Q06187 whole entry): as above

Btk [4] = molecular target: T1, Btk; assay: Recombinant protein labeling assay; assay type: binding; settings: recombinant Btk (0.5 μg)
Text: […] The gel was then blotted, and the total Btk levels were detected by standard […]. The concentration course labeling procedure was similar to that for the time course labeling.
Target sequence in this assay (Q06187 whole entry, species assumed): as the sequence (Q06187 whole entry) above

Jurkat cells = assay: Cellular labeling by probe 14 in Jurkat cells (T-cell line that does not express Btk); assay type: cell-based; settings: T-cell line without Btk (Supplementary Figure S1)
Description: Supplementary figure S1: competition experiment in OCI-Ly7 cells (a) and Jurkat cells (b). 1.5×10^6 cells were pre-incubated with compounds for 1h at 1μM before labeling with probe 14 for 2h at 0.5μM. Then, lysed, quantified and analyzed by SDS/PAGE and fluorescent gel scanning (fluorescence, CY2).

Btk [5] = molecular target: T1, Btk; assay: Cellular labeling of Btk by probe 14 in OCI-Ly7 cells; assay type: cell-based
Description: Labeling of Btk by probe 14. A total of 1.5 × 10^6 cells were treated with probe 14 at 1 μM for different lengths of times (5 min, 10 min, 20 min, 30 min, 1 h, 2 h, 3 h, or 4 h), washed, lysed in cell lysis buffer (Beyotime) containing 1 mM PMSF and 10 mM NaF (Invitrogen), and centrifuged. The sample protein concentrations were quantified using a NanoDrop 2000 spectrophotometer, and the samples were adjusted to the same concentration then analyzed by SDS/PAGE and fluorescent gel scanning (fluorescence, CY2). The gel was then blotted, and the total Btk levels were detected by a standard Western blot. The concentration course labeling procedure was similar to that for the time course labeling.
Target sequence in this assay (Q06187 whole entry): as above

SMILES: C=CC(=O)N[C@@H](Cc1cnc[nH]1)C(=O)Nc1cccc(Nc2ncc(NC(=O)c3cc(NC(=O)c4cccc(C(F)(F)F)c4)ccc3C)cn2)c1 [Compound 12]
- IC50 (Btk [1]): 0.0643 ± 0.00495 µM

SMILES: C=CC(=O)N[C@@H](CO)C(=O)Nc1cccc(Nc2ncc(NC(=O)c3cc(NC(=O)c4cccc(C(F)(F)F)c4)ccc3C)cn2)c1 [Compound 8]
- IC50 (Btk [1]): 0.0274 ± 0.0026 µM

SMILES: C=CC(=O)N[C@@H](CC(N)=O)C(=O)Nc1cccc(Nc2ncc(NC(=O)c3cc(NC(=O)c4cccc(C(F)(F)F)c4)ccc3C)cn2)c1 [Compound 9]
- IC50 (Btk [1]): 0.015 to 0.02 µM and 0.0198 µM

SMILES: C=CC(=O)Nc1cccc(Nc2ncc(NC(=O)c3cc(NC(=O)c4cccc(C(F)(F)F)c4)ccc3C)cn2)c1 [Compound 2]
- Blocking of the labeling of Btk by probe 14 (Btk [2]): effectively blocked; also recorded: completely competed off

SMILES: C=CC(=O)NCCC(=O)Nc1cccc(Nc2ncc(NC(=O)c3cc(NC(=O)c4cccc(C(F)(F)F)c4)ccc3C)cn2)c1 [Compound 3]
- IC50 (Btk [1]): 0.0267 ± 0.00574 µM

SMILES: C=CC(=O)N[C@@H](CCC(=O)O)C(=O)Nc1cccc(Nc2ncc(NC(=O)c3cc(NC(=O)c4cccc(C(F)(F)F)c4)ccc3C)cn2)c1 [Compound 10]
- IC50 (Btk [1]): 0.015 to 0.02 µM and 0.0147 µM

SMILES: C=CC(=O)N1CCC[C@H]1C(=O)Nc1cccc(Nc2ncc(NC(=O)c3cc(NC(=O)c4cccc(C(F)(F)F)c4)ccc3C)cn2)c1 [Compound 4]
- IC50 (Btk [1]): 0.0529 ± 0.00095 µM

SMILES: C=CC(=O)N[C@@H](CC(C)C)C(=O)Nc1cccc(Nc2ncc(NC(=O)c3cc(NC(=O)c4cccc(C(F)(F)F)c4)ccc3C)cn2)c1 [Compound 6, (S)-N-(2-((3-(2-acrylamido-4-methylpentanamido)phenyl)amino)pyrimidin-5-yl)-2-methyl-5-(3-(trifluoromethyl)benzamido)benzamide]
- IC50 (Btk [1]): > 0.1 µM and 0.114 µM

SMILES: C=CC(=O)N[C@@H](Cc1ccccc1)C(=O)Nc1cccc(Nc2ncc(NC(=O)c3cc(NC(=O)c4cccc(C(F)(F)F)c4)ccc3C)cn2)c1 [Compound 7]
- IC50 (Btk [1]): > 0.1 µM and 0.14 µM

SMILES: C=CC(=O)NCC(=O)Nc1cccc(Nc2ncc(Nc3cc(NC(=O)c4cccc(C(F)(F)F)c4)ccc3C)cn2)c1 [Compound 1]
- IC50 (Btk [1]): 0.0167 µM

SMILES: C#CCCC(=O)NCCCC[C@H](NC(=O)C=C)C(=O)Nc1cccc(Nc2ncc(NC(=O)c3cc(NC(=O)c4cccc(C(F)(F)F)c4)ccc3C)cn2)c1 [Compound 13]
- IC50 (Btk [1]): 0.038 µM and 0.0375 µM
- kinact/KI (Btk [3]): 75000 ± 8e+08 M⁻¹ s⁻¹

SMILES: C=CC(=O)N[C@@H](CCCCNC(=O)CCC1=[N+]2C(=Cc3c(C)cc(C)n3[B-]2(F)F)C=C1)C(=O)Nc1cccc(Nc2ncc(NC(=O)c3cc(NC(=O)c4cccc(C(F)(F)F)c4)ccc3C)cn2)c1 [Compound 14, (S)-3-(3-((5-acrylamido-6-((3-((5-(2-methyl-5-(3-(trifluoromethyl)benzamido)benzamido)pyrimidin-2-yl)amino)phenyl)amino)-6-oxohexyl)amino)-3-oxopropyl)-5,5-difluoro-7,9-dimethyl-5H-dipyrrolo[1,2-c:2',1'-f][1,3,2]diazaborinin-4-ium-5-uide]
- Incubation time at which fluorescent signals reached a maximum (Btk [4]): 2 h
- Labeling in Jurkat cells (Jurkat cells): no significant labeling
- Saturation rate of labeling compared with PCI-33380 (Btk [5]; OCI-Ly7 cells (Supplementary Figure S2)): slower saturation rate
- Probe concentration at which Btk band intensity reached saturation (Btk [5]; OCI-Ly7 cells, concentration course): 0.5 µM
- Incubation time sufficient for labeling (Btk [5]; OCI-Ly7 cells, time course): 2 h

SMILES: C=CC(=O)N[C@@H](C)C(=O)Nc1cccc(Nc2ncc(NC(=O)c3cc(NC(=O)c4cccc(C(F)(F)F)c4)ccc3C)cn2)c1 [Compound 5]
- IC50 (Btk [1]): 0.044 ± 0.00813 µM

SMILES: C=CC(=O)N[C@@H](CCCCN)C(=O)Nc1cccc(Nc2ncc(NC(=O)c3cc(NC(=O)c4cccc(C(F)(F)F)c4)ccc3C)cn2)c1 [Compound 11, Trifluoroacetate of (S)-N-(2-((3-(2-acrylamido-6-aminohexanamido)phenyl)amino)pyramidin-5-yl)-2-methyl-5-(3-(trifluoromethyl)benzamido)benzamide]
- IC50 (Btk [1]): 0.063 µM and 0.0628 µM
- kinact/KI (Btk [3]): 135000 ± 4e+08 M⁻¹ s⁻¹

Source: PMC4648318, “A novel 2,5-diaminopyrimidine-based affinity probe for Bruton’s tyrosine kinase” (Scientific Reports, 2015)
